Reference: patent publication US10668123B2, “Capsicum compositions and uses thereof” (OmniActive Health Technologies Limited, priority 2015, dated 2020)

Test system: 3T3L1 cells
Assay: Lipolysis in 3T3L1 cells, glycerol release as biomarker
Type: cell-based
Settings: positive control, time and concentration not given
Protocol: Pancreatic lipase activity was measured using 4-methylumbelliferyl oleate (MU Oleate) as a substrate via a fluorescence kinetic assay. 3T3L1 cells were treated with capsicum composition (100 μg/1111) at different time points such as 1 hour (h), 2 h, 4 h and 24 h. […] was used as the positive control. Lipolysis was assessed using glycerol release as a biomarker.
Capsicum composition enhanced the lipolysis after 24 h treatment. The ratio of released glycerol/protein content was 1.59, compared to the positive control:isoproterenol (ratio: 1.60).

CC(C)NCC(O)c1ccc(O)c(O)c1 (stereo not shown) [Isoproterenol]
Ratio treated/non treated (lipolysis): 1.60
